{
  "source": "patent US10220051B2",
  "about": "“Combination of DNA repair inhibition with bendamustine or gemcitabine in the treatment of cancer” (Institute for Cancer Research, priority 2012, dated 2019)",
  "key": {"[1]": {"system": "TDG wild type mouse embryo fibroblast lines (MEFs)", "assay": "Cell cycle FACS after gemcitabine, wild type MEFs", "assay_type": "cell-based", "conditions": "50 nM gemcitabine, 48 hours", "protocol": "(§1) DNA content analysis via flow cytometry. Following indicated drug treatments, cells were fixed with 70% ethanol. For analysis, cells were stained with propidium iodide, RNase A and sodium citrate. Cells were incubated at 37° C. for 30 minutes before being analyzed using a Becton Dickinson single laser three-fluorescence FACScan flow analyzer and Cell Quest software (Becton Dickinson). DNA content was acquired from 10,000 events and FlowJo software was used to process the data.\n(§2) Isogenic, littermate-derived, thymine DNA glycosylase (TDG) wild type and knock-out mouse embryo fibroblast lines (MEFs) were treated with a sub-lethal dose of 50 nM gemcitabine for 48 hours. At the end of the treatment, cells were collected, stained with propidium iodide and analyzed by flow cytometry."}, "[2]": {"system": "BxPC3 pancreatic cancer cells", "assay": "Clonogenic assay, BxPC3 with or without TDG knockdown", "assay_type": "cell-based", "conditions": "TDG knockdown (C8) versus pLKO-infected BxPC3", "protocol": "Clonogenic assays were conducted on pancreatic cancer (PaC) cell line BxPC3 infected with empty pLKO vector or with the C8 lentivirus that downregulates TDG. Even in the absence of gemcitabine, colony formation by the TDG knockdown cells was reduced nearly 60% (FIG. 13). In FIG. 10, the maximum number of colonies formed by pLKO-infected BxPC3 cells was set as 100%."}, "[3]": {"system": "TDG knock-out MEFs transduced with wild type human TDG cDNA", "assay": "Cell cycle FACS after gemcitabine, knock-out MEFs with wild type hTDG", "assay_type": "cell-based, mouse", "conditions": "knockout MEFs reconstituted with wild type TDG", "protocol": "(§3) The biologic function of TDG includes a non-enzymatic role as transcriptional co-activator, mediated by protein-protein interactions, and an enzymatic role related to its DNA N-glycosylase activity. To determine whether sensitization to gemcitabine was due to inactivation of TDG enzymatic function, TDG knock-out MEFs transduced with wild type or glycosylase-dead human TDG cDNA were evaluated."}, "[4]": {"system": "TDG knock-out mouse embryo fibroblast lines (MEFs)", "assay": "Cell cycle FACS after gemcitabine, TDG knock-out MEFs", "assay_type": "cell-based", "conditions": "50 nM gemcitabine, 48 hours", "protocol": "as §1, §2"}, "[5]": {"system": "TDG knock-out MEFs transduced with glycosylase-dead human TDG cDNA", "assay": "Cell cycle FACS after gemcitabine, knock-out MEFs with glycosylase-dead hTDG", "assay_type": "cell-based, mouse", "conditions": "versus knock-out cells transduced with wild type human TDG cDNA", "protocol": "as §3"}, "MCF7 breast cancer cells": {"system": "MCF7 breast cancer cells", "assay": "Killing by juglone combinations, MCF7", "assay_type": "cell-based"}, "BxPC3 cells [6]": {"system": "BxPC3 cells", "assay": "MTS assay, TDG inhibitor combinations, BxPC3", "assay_type": "cell-based", "conditions": "10 μM juglone + increasing BDM, 72 and 96 hours", "protocol": "(§4) Two TDG inhibitors, juglone and closantel, were tested for their ability to kill two PaC cell lines, BxPC3 and Panc1 cells, in MTS assays. Cells were treated for 72 and 96 hours with 10 μM juglone and 20 μM closantel, in combination with increasing concentrations of BDM."}, "[7]": {"system": "MCF7 breast cancer cell lines", "assay": "xCelligence proliferation assay, MCF7", "assay_type": "cell-based", "conditions": "juglone + BDM"}, "SK28 cells [8]": {"system": "SK28 cells", "assay": "SK28 clonogenic assay", "assay_type": "cell-based", "conditions": "SK28, concentration-dependent, quadruplicate", "protocol": "(§5) Tests were conducted in quadruplicate."}, "BxPC3 cells [9]": {"system": "BxPC3 cells", "assay": "xCelligence proliferation assay, BxPC3", "assay_type": "cell-based", "conditions": "increasing juglone + 45 μM BDM, 24 hours", "protocol": "To independently verify the MTS and clonogenic assays described in the preceding Examples, an assay was conducted using a xCelligence real-time cell analyzer (ACEA Biosciences, Inc.), using a label-free, non-invasive method to monitor adherent cell behavior, including proliferation, spreading and compound-mediated cytotoxicity. The system is based on detecting impedance differences within an electrical circuit created in microelectrodes at the base of culture wells; these differences are converted into a cell index (CI), a value that is influenced by a variety of factors, such as cell number, cell size and cell adhesion. The effect of the TDG inhibitor juglone, in combination with bendamustine (BDM) and gemcitabine (GCB), was assessed on the growth of various cancer cells. BxPC3 cells were treated with 45 μM BDM, in combination with increasing concentrations of juglone, and proliferation was followed over 24 hours."}, "[10]": {"system": "HCT116 colon cancer cells", "assay": "Killing by juglone combinations, HCT116", "assay_type": "cell-based", "protocol": "[The source words this procedure for another cell line and reports this cell line under the same test.] as §4"}, "SK28 cells [11]": {"system": "SK28 cells", "assay": "SK28 cell viability (MTS assay)", "assay_type": "cell-based", "conditions": "SK28, concentration-dependent, quadruplicate", "protocol": "as §5"}, "SK28 melanoma cells": {"system": "SK28 melanoma cells", "assay": "Killing by juglone combinations, SK28", "assay_type": "cell-based"}},
  "note": "“Also recorded” adds a separate entry of the source.",
  "data": [
    {"smiles": "Nc1ccn([C@@H]2O[C@H](CO)[C@@H](O)C2(F)F)c(=O)n1", "note": "[gemcitabine, 2′,2′-difluorodeoxycytidine]", "values": [
      {"measurement": "cells in S phase", "setting": "[1]", "value": 20.7, "unit": "%"},
      {"measurement": "colony formation with increasing gemcitabine", "setting": "[2]", "value": "further reduced, and this reduction was greater than pLKO-infected cells expressing TDG"},
      {"measurement": "response to gemcitabine (flow cytometry)", "setting": "[3]", "value": "responded the same as wild type MEFs"},
      {"measurement": "cells in S phase", "setting": "[4]", "value": 52.3, "unit": "%"},
      {"measurement": "sensitivity to gemcitabine (flow cytometry)", "setting": "[5]", "value": "increased sensitivity"}
    ]},
    {"smiles": "O=C1C=CC(=O)c2c(O)cccc21", "note": "[juglone, 5-hydroxynaphthoquinone]", "values": [
      {"measurement": "killing effect in combination with BDM", "setting": "MCF7 breast cancer cells; juglone + BDM", "value": "synergistic effect"},
      {"measurement": "killing effect in combination with gemcitabine", "setting": "MCF7 breast cancer cells; juglone + gemcitabine", "value": "synergistic killing"},
      {"measurement": "killing effect in combination with BDM", "setting": "BxPC3 cells [6]", "value": "synergistic killing effect"},
      {"measurement": "proliferation (normalized cell index)", "setting": "[7]", "value": "A similar result was observed"},
      {"measurement": "clonogenic capacity / colony-forming ability", "setting": "SK28 cells [8]", "value": "reduction of SK28 cell viability (MTS assay) and colony-forming ability; also recorded: reduction of clonogenic capacity"},
      {"measurement": "clonogenic capacity / colony-forming ability", "setting": "SK28 cells [8]; listed as Juglone", "value": "reduce cell viability and clonogenic capacity"},
      {"measurement": "proliferation (normalized cell index)", "setting": "BxPC3 cells [9]", "value": "suppressed proliferation more than juglone alone"},
      {"measurement": "killing in combination with bendamustine", "setting": "[10]; juglone + bendamustine", "value": "more effectively killed"},
      {"measurement": "killing in combination with gemcitabine", "setting": "[10]; juglone + gemcitabine", "value": "more effectively killed"},
      {"measurement": "cell viability", "setting": "SK28 cells [11]", "value": "reduction of SK28 cell viability"},
      {"measurement": "cell viability", "setting": "SK28 cells [11]; listed as Juglone", "value": "reduce cell viability"},
      {"measurement": "killing in combination with bendamustine", "setting": "SK28 melanoma cells; juglone + bendamustine", "value": "more effectively killed"},
      {"measurement": "killing in combination with gemcitabine", "setting": "SK28 melanoma cells; juglone + gemcitabine", "value": "more effectively killed"}
    ]}
  ]
}
